{"source": "patent US5800991A", "about": "“Nucleotide or nucleoside photoaffinity compound modified antibodies, methods for their manufacture and use thereof as diagnostics and therapeutics” (University of Kentucky Research Foundation, priority 1996, dated 1998)", "molecules": {"B1": {"name": "S1C5: anti-B cell lymphoma idiotype antibody; specific for a murine B-cell tumor idiotype 38C13 (protein)", "chain": "QIVLTQSPAINSASLGERVTMTCTASSSVSSSYFHWYQQKQGSSPKLWIYTTSNLASGVPARFSGSGSGTSYSLTISSMEAEDAATYYCHQYHRSPLTFGAGTKLELKRAQVQLQQSDAILVKPGASVKISCKASGYTFTDHVIHWVKQRPEQLGEWIGFISPGNGDIRYNEKFKDKATADKSSSTAYMQLNSLTSEDSAVYFCKRSFYYYDDNYGDYWGQGTTLTVSSAK", "modifications": "photoaffinity label in the variable domains as tested: biotinylated 8-azidoadenosine (FACS) or [gamma-32P]8-N3ATP (cell binding competition); labelled residue not fixed", "notes": "anti-B cell lymphoma idiotype antibody; specific for a murine B-cell tumor idiotype 38C13"}, "B2": {"name": "8019: IgG1, κ antibody; recognizes the CEA antigen expressed by the LS17T4 tumor cell line (protein)", "chain": "DIVLTQSPASLSASVGETVTITCRASENIYSYLLWYQQKQGKSPQLLVYNAKTLAEGVPSRFSGSGSGTQFSLKINSLQPEDFGSYFCQHHFGTPWTFGGGTSLEIKRAEVNLEESGGGLVQPGGSMKLSCAASGFTESDAWMDWVRQSPEKGLEWVAEIRTKVNNHATYYAESVKGRFTISRDDSKSNVYLQMNSLRVEDTGIYYCTMAYYEAYWGQGTLVTSAAK", "modifications": "photoaffinity label in the variable domains as tested: biotinylated 8-azidoadenosine (FACS) or [gamma-32P]8-N3ATP (cell binding competition); labelled residue not fixed", "notes": "IgG1, κ antibody; recognizes the CEA antigen expressed by the LS17T4 tumor cell line"}}, "key": {"antibody affinity site": {"test_system": "antibody affinity site", "assay": "Protection experiments with nucleotides and nucleosides against [γ^32 P]8-N3 ATP photolabeling", "format": "binding", "settings": "data not shown", "procedure": "(§1) Antibodies (3 μg) were incubated with 200 μM [γ^32 P]8-N3 ATP (5-30 mCi/μmole) in a final volume of 30 μL for 1 minute and photolyzed with a hand-held UV lamp at 254 nm for 1 min. The reactions were quenched with protein solubilizing mixture (10% SDS, 3.6M urea, 162 mM DTT, Pyronin Y and 20 mM Tris, pH 8.0) and analyzed by 6-14% gradient SDS-PAGE. The gels were stained with Coomassie Brilliant Blue, destained, and dried using a slab gel drier. ^32 P incorporation was detected by autoradiography and quantified by either scanning on an optical Image and Acquisition Analysis (Ambis, Inc.) or by cutting the appropriate band from the gel counting the radioactivity by liquid scintillation counting.\n(§2) Antibody S1C5 (Maloney et al, Hybridoma, 4:191-209 (1985)), and 8019 (Koprowsky et al, Somat. Cell. Genet., 5:957-961 (1979)) each (3 μg) were incubated with increasing concentrations of [γ^32 P]8-N3 ATP for 1 min at 4° C. and photolyzed and analyzed as described above. Protection of photolabeling of S1C5 and 8019 was performed by incubating […] of antibodies with increasing concentrations of ATP for 2 min followed by incubation with 200 μM [γ^32 P]8-N3 ATP for 1 min and photolyzed and analyzed as described above. […]"}, "8019 antibody [1]": {"test_system": "8019 antibody", "assay": "Inhibition by ATP of [γ^32 P]8-N3 ATP photolabeling of 8019 antibody", "format": "binding", "settings": "8019, 200 μM [γ^32 P]8-N3 ATP, in words", "procedure": "as §1, §2"}, "SIC5 antibody [2]": {"test_system": "SIC5 antibody", "assay": "Inhibition by ATP of [γ^32 P]-8-N3 ATP photoincorporation into SIC5 (S1C5) antibody", "format": "binding, murine", "procedure": "The SIC5 antibody was again labeled, but in this example labeling was performed in the presence of increasing amounts of free ATP. Specifically,3 μg of the SIC5 antibody was photolyzed in the presence of 200 μm [γ^32 P]-8-N3 ATP using concentrations of ATP ranging from 0 to 700 μm. The labeled protein was again separated by SDS-PAGE; and radioactivity determined by liquid scintillation counting.\nas §1\n(§3) Antibody S1C5 (Maloney et al, Hybridoma, 4:191-209 (1985)), and 8019 (Koprowsky et al, Somat. Cell. Genet., 5:957-961 (1979)) each (3 μg) were incubated with increasing concentrations of [γ^32 P]8-N3 ATP for 1 min at 4° C. and photolyzed and analyzed as described above. Protection of photolabeling of S1C5 and 8019 was performed by incubating […] of antibodies with increasing concentrations of ATP for 2 min followed by incubation with 200 μM [γ^32 P]8-N3 ATP for 1 min and photolyzed and analyzed as described above. Protection experiments using amino acids were performed by incubating 3 μg of S1C5 antibody with increasing concentrations of amino acids for 2 min, followed by incubation with 200 μM [γ^32 P]8-N3 ATP for 1 min. Photolysis and analysis were performed as described."}, "8019 antibody [3]": {"test_system": "8019 antibody", "assay": "Photolabeling saturation of 8019 antibody with [γ^32 P]8-N3 ATP", "format": "binding", "settings": "8019, Example 10", "procedure": "as §1, §2"}, "SIC5 antibody [4]": {"test_system": "SIC5 antibody", "assay": "Photolabeling saturation of SIC5 (S1C5) antibody with [γ^32 P]-8-N3 ATP", "format": "binding, murine", "procedure": "In particular, 3 μg of SIC5 antibody in […] of photolysis buffer was photolyzed with increasing concentrations of [γ^32 P]-8-N3 ATP and then separated by SDS-PAGE. ^32 P incorporation was detected by autoradiography and quantified by scanning on Optical Imaging Acquisition Analysis (Ambis, Inc.). Photoincorporation was quantitatively confirmed by cutting the appropriate band and determining radioactivity by liquid scintillation counting. […] It can further be seen that there is a defined saturating concentration of probe at about 200 μm for both chains. This saturation plateau provides strong evidence that there exists a unique and limited number of affinity sites of the antibody which are bound by the [γ^32 P]-8-N3 ATP compound.\nas §1, §3"}, "S1C5 antibody [5]": {"test_system": "S1C5 antibody", "assay": "Quantitative immuno-precipitation of [γ^32 P]8-N3 ATP labeled S1C5 (stoichiometry)", "format": "binding, murine", "settings": "triplicate experiments", "text": "Amino acid sequence of S1C5 and 8019 were deduced from the cloned and sequenced V genes (FIG. 12c). The identified peptides from photoaffinity labeling corresponded to sequences located in the variable Ig domain. The peptides eluted first (T1) from each antibody are derived from the CDR1 domain of the variable light chain extending into FR2. The second eluted peptides (T2) are from the CDR3-FR4 region of the variable heavy chain domain. It is striking that both peptides included invariant aromatic residues, Trp H103 in the VH domain and the highly conserved Tyr L36 within the VL domain."}, "S1C5 antibody [6]": {"test_system": "S1C5 antibody", "assay": "Protection of S1C5 photolabeling by amino acids", "format": "binding, murine", "settings": "200 μM [γ^32 P]8-N3 ATP", "procedure": "as §1, §2"}, "[7]": {"test_system": "murine B-cell tumor idiotype 38C13", "assay": "Competition of γ^32 P-labeled S1C5 binding to its cellular target by unlabeled antibody", "format": "cell-based", "settings": "38C13, data not shown", "procedure": "(§4) To determine whether the modification of this site affects antigen recognition the binding of photolabeled S1C5 (IgG2a, κ) and 8019 (IgG1, κ) to their respective antigens was tested, S1C5 is specific for a murine B-cell tumor idiotype 38C13 (13) and 8019 recognizes the CEA antigen (Koprowsky et al, Somat. Cell. Genet., 5:957-961 (1979)), expressed by the LS17T4 tumor cell line. […] Also, these same antibodies were photomodified with biotinylated 8-N3 adenosine and used in FACS. […] A comparison of the photoaffinity biotinylated antibodies with conventionally biotinylated antibodies in FACS produced nearly identical staining (manuscript submitted)."}, "38C13 tumor cells": {"test_system": "38C13 tumor cells", "assay": "FACS of biotinylated 8-azidoadenosine labeled S1C5", "format": "cell-based, murine", "settings": "biotinylated 8-N3 adenosine modified antibody", "procedure": "(§5) Tumor cells (38C13 and LS174T, 1×10^6) were incubated with biotinylated 8-azidoadenosine labeled antibody S1C5 or 8019 (manuscript submitted) for 60 min. on ice. After washing with 5% FCS/PBS, Neutralite Avidin-FITC (Southern Biotechnology Associates, Inc.) was added and incubated for 30 min., fixed and subjected to flow cytometry. FACS data were generated front a minimum of 9900 cells per sample.\nas §4"}, "[8]": {"test_system": "CEA antigen, LS174T tumor cells", "assay": "Competition of γ^32 P-labeled 8019 binding to its cellular target by unlabeled antibody", "format": "cell-based", "settings": "data not shown", "procedure": "as §4"}, "LS174T tumor cells": {"test_system": "LS174T tumor cells", "assay": "FACS of biotinylated 8-azidoadenosine labeled 8019", "format": "cell-based", "settings": "biotinylated 8-N3 adenosine modified antibody", "procedure": "as §5, §4"}}, "note": "Entries after “also recorded” stand apart in the source; their conditions may differ. Read-outs that look alike come from different tables or passages of the source."}
{"molecule": "[N-]=[N+]=Nc1nc2c(N)ncnc2n1[C@@H]1O[C@H](CO)[C@@H](O)[C@H]1O", "note": "[8-azidoadenosine]", "values": [{"measurement": "binding relative to 8-N3 ATP", "setting": "antibody affinity site", "result": "tighter binding than 8-N3 ATP"}]}
{"molecule": "Nc1ncnc2c1ncn2[C@@H]1O[C@H](COP(=O)(O)OP(=O)(O)OP(=O)(O)O)[C@@H](O)[C@H]1O", "note": "[ATP]", "values": [{"measurement": "protection against photolabeling by ATP", "setting": "8019 antibody [1]", "result": "Photolabeling could be prevented; also recorded: photolabeling is inhibited by ATP"}, {"measurement": "IC50", "setting": "SIC5 antibody [2]; 200 μm [γ^32 P]-8-N3 ATP, ATP 0 to 700 μm, Example 2, read-out: ATP concentration for 50% inhibition of labeling", "result": "~350", "unit": "µM"}, {"measurement": "IC50", "setting": "SIC5 antibody [2]; ATP vs [γ^32 P]-8-N3 ATP, FIG. 2 legend, read-out: 50% inhibition of photoincorporation", "result": "~350", "unit": "µM"}, {"measurement": "protection against photolabeling by ATP", "setting": "SIC5 antibody [2]; S1C5, 200 μM [γ^32 P]8-N3 ATP, in words", "result": "Photolabeling could be prevented; also recorded: photolabeling is inhibited by ATP"}]}
{"molecule": "[N-]=[N+]=Nc1nc2c(N)ncnc2n1[C@@H]1O[C@H](COP(=O)(O)OP(=O)(O)O[32P](=O)(O)O)[C@@H](O)[C@H]1O", "note": "[[γ^32 P]-8-N3 ATP]", "values": [{"measurement": "saturation of photolabeling", "setting": "8019 antibody [3]", "result": "about 50 μM"}, {"measurement": "Kd", "setting": "8019 antibody [3]; read-out: apparent Kd", "result": 25, "unit": "µM"}, {"measurement": "saturation of photolabeling", "setting": "SIC5 antibody [4]; S1C5, Example 10", "result": "150 to 175", "unit": "µM"}, {"measurement": "Kd", "setting": "SIC5 antibody [4]; S1C5, Example 10, read-out: apparent Kd", "result": 75, "unit": "µM"}, {"measurement": "saturating concentration of probe", "setting": "SIC5 antibody [4]; [γ^32 P]-8-N3 ATP, both heavy and light chains, Example 1", "result": "about 200 μm"}, {"measurement": "photoincorporation into heavy and light chains", "setting": "SIC5 antibody [4]; in words, Example 1", "result": "covalently attaching to both antibody heavy and light chains; also recorded: covalently attached to both heavy and light chains"}, {"measurement": "average number of molecules of 8-N3 ATP/Ig molecule", "setting": "S1C5 antibody [5]", "result": "1.9±0.2 molecules of 8-N3 ATP/Ig molecule"}]}
{"molecule": "N[C@@H](Cc1c[nH]c2ccccc12)C(=O)O", "note": "[tryptophan]", "values": [{"measurement": "protection against photolabeling by amino acids", "setting": "S1C5 antibody [6]", "result": "best protection"}]}
{"molecule": "B1", "values": [{"measurement": "inhibition of γ^32 P-labeled antibody binding by unlabeled antibody", "setting": "[7]", "result": "inhibited on an apparent 1:1 ratio by unlabeled antibodies"}, {"measurement": "binding to tumor cell targets by flow cytometry", "setting": "38C13 tumor cells", "result": "recognized their specific tumor cell targets"}]}
{"molecule": "B2", "values": [{"measurement": "inhibition of γ^32 P-labeled antibody binding by unlabeled antibody", "setting": "[8]", "result": "inhibited on an apparent 1:1 ratio by unlabeled antibodies"}, {"measurement": "binding to tumor cell targets by flow cytometry", "setting": "LS174T tumor cells", "result": "recognized their specific tumor cell targets"}]}
